Legend:
[1] = after first pass metabolism; cited from earlier work
alkaline phosphatase = assay: Digestion of the phosphorylated prodrug with alkaline phosphatase, followed by 31P NMR; format: in vitro ADME; details: 1 mg (10 units) alkaline phosphatase in water, stirred for 2 hours
Experimental: N-acetyl-S-phosphocysteine was synthesized according to the procedure followed by Binkely (1954). N-acetyl cysteine (0.5 g) was dissolved in 8 mL of distilled water in an ice bath. The NAC solution was then treated with 0.2 mL of phosphorus oxychloride and with sodium hydroxide to maintain the basic pH of 11. The resulting white solid was dried and re-dissolved in deuterium oxide for ^31P, ^13C and ^1H NMR analysis. After analysis, the sample was dried, re-suspended in water, and treated with 1 mg (10 units) of alkaline phosphatase, and stirred for 2 hours. The solution was dried and resuspended in deuterium oxide for NMR analysis.
Synthesis of ester cysteine was followed according to the procedure as follows. NAC (0.2 g) was dissolved in 7 mL of ethanol, 2 mL of concentrated hydrochloric acid and stirred at room temperature for 1 hour. The reaction mixture was refluxed for 1 hour at 60° C. The sample was then dried and resuspended in acetonitrile for ESI-MS analysis (same instrument settings as described for analysis of HIDD). The acid protected sample was phosphorylated with POCL3, and sodium hydroxide dried and resuspended in deuterium oxide for NMR analysis. After analysis, the sample was dried, resuspended in water, treated with 1 mg (10 units) of alkaline phosphatase and stirred for 2 hours. […]
The ester NAC was synthesized according to the procedure as follows and analyzed with ESI-MS. […]

SMILES	presence of free drug in the systemic circulation [1]	cleavage of S—P linkage on digestion with alkaline phosphatase (31P NMR) (alkaline phosphatase)
CC(=O)N[C@@H](CS)C(=O)O [NAC, N-acetyl cysteine]	around 9%	
CC(=O)N[C@@H](CSP(=O)(O)O)C(=O)O [phosphorylated NAC, N-acetyl-S-phosphocysteine]		hydrolyzed with alkaline phosphatase
